This note sets out measurements from patent publication US20130310347A1, “MULTI-MODALITY MOLECULAR IMAGING HIGH-THROUGHPUT ASSAY FOR IDENTIFYING HEAT SHOCK PROTEIN 90 (HSP90) INHIBITORS” (The Board of Trustees of the Leland Stanford Junior …, priority 2012, published 2013).

Test [1] deals with T1, Hsp90α/p23 interactions (Homo sapiens, UniProt P07900).
T1 construct: expressed in transfected cells; also with FL-eGFP reporter (293Tα-FG) and as xenografts in nude mice
Put plainly: HTS dose response, 293T cells stably expressing Hsp90α/p23 split RL reporters. Type of test: cell-based. The note with it: inhibition of bioluminescence signals by 50% vs carrier control; 8 point dose response 0.156-20 μM; 24 h. As for the experimental part: Novel Hsp90 inhibitors using a commercial 30,176 small molecule chemical compound library with unknown targets and molecular mechanisms (FIG. 9B) were also identified. 293T cells stably expressing Hsp90α/p23 or Hsp90β/p23 split RL reporters were treated with each compound at 8.3 μM.
Baseline complemented RL activities were determined 90 mins after addition of 20 μl of ENDUREN® (10 μM final concentration) (Promega, Madison, Wis.) using the Analyst GT (Molecular Device, Sunnyvale, Calif.), with an acquisition time of 0.2 sec per well. Cells were incubated with compounds for 24 h prior to re-determination of complemented RL activities, and normalized to the mean RL activities of untreated cells in columns 1-2. Another small molecule chemical library with 30,176 compounds (SPECS, Wakefield, R.I.) was also used in screening modulators of Hsp90(α/β)/p23 inhibitors (at 8.3 μM, one drug per well for initial screening). For dose response/confirmation assay the compounds were tested in duplicate in an 8 point (0.156-20 μM) dose response assay for RL activities for both Hps90(α/β)/p23 interactions. The effect of each compound on cell proliferation at 20 μM was determined using Cell Titer-Blue assay in duplicate wells. […]

Test [2] deals with Hsp90 client proteins (Raf-1, total and phosphorylated Akt). The experiment in a line: Western blotting of Hsp90 client proteins in 293T cells. Type of test: cell-based, human. Particulars: 5 μM, 24 h. As for the experimental part: FIG. 5A is a digital image of a western blot analysis illustrating the effect of lead compounds on the expression of Hsp90 client proteins. 293T cells stably expressing Hsp90(α/β)/p23 split reporters were treated with carrier control or compounds CP1, CP9, or CP18 (5 μM each) for 24 h. The known Hsp90 inhibitor PU-H71 (2 μM) was used as a positive control. The expression of Hsp90 client proteins (Raf-1, total and phosphorylated Akt) was determined by western blotting. α-Tubulin was used as a loading control.
Cells treated with PU-H71 (2 μM) served as a positive control.
Cells treated with 2 μM of PU-H71 served as a positive control. Western blotting of Hsp70, phosphorylated and total Akt and co-immunoprecipitation of Hsp90(α/β)/p23 interactions was performed as described Inglese et al., (2006) Proc. Nat. Acad. Sci. U.S.A. 103: 11473-11478, incorporated herein by reference in its entirety. The expression of Raf-1 was determined using rabbit polyclonal antibodies against Raf-1 (0.5 μg/ml, Abcam).

In test [3] the test system is phosphorylated/total Akt and Raf-1. Put plainly: Western blotting of Hsp90 client proteins in multiple cancer cell lines. The note with it: BT474/MCF-7/SK-Br3, 1975, HT1080, 4-4/HUH7, PC3, 2008, U87MG, HT29. Type of test: cell-based, human. The text has this:
FIGS. 10A and 10B show the effect of CP9 on the expression of Raf-1, phosphorylated Akt, and total Akt in 1975 lung cancer, BT474 breast cancer and HuH-7 liver cancer as determined by western blotting. α-Tubulin was used as the loading control.
CP9 had no effect on the expression of the Hsp90 client proteins in normal mouse embryonic fibroblasts (MEF) cells (FIG. 10C).
For orientation: A western blot detects proteins with antibodies after separation by electrophoresis.

The target of test [4] is purified Hsp90α (Homo sapiens, UniProt P07900). The experiment in a line: In vitro competitive binding with 3H-17AAG. The note with it: CP9 200 μM pre-incubation; p<0.05. As for the experimental part: (§1) FIG. 5C is a graph illustrating the competitive in vitro binding of CP9 with ^3H-17AAG to Hsp90(α/β). Purified Hsp90(α/β) was pre-incubated with CP9 (200 μM) or cold 17-AAG (50 μM) prior to incubation with ^3H-17AAG. The reaction complexes were then eluted through a desalting column to remove any unbound ^3H-17AAG prior to scintillation counting for the amount of ^3H-17AAG bound to Hsp90(α/β). Columns incubated with ^3H-17AAG alone served as negative controls. Results are expressed as means of triplicates±S.E.M. *, p<5×10^−6 vs. carrier control-treated cells.
(§2) To confirm the direct binding of CP9 to Hsp90(α/β), an in vitro competitive binding assay using purified Hsp90α and Hsp90β was performed using radiolabeled Hsp90 inhibitor ^3H-17AAG. Hsp90 proteins were pre-bound with CP9 or cold 17-AAG as a control prior to incubation with ^3H-17AAG. Unbound ^3H-17AAG was removed and the amount of ^3H-17AAG bound to the Hsp90 proteins was determined. […] To confirm cellular Hsp90 as the target of CP9, uptake studies in intact HT29 cells were performed by monitoring the competitive binding of ^3H-17AAG. […]
(§3) To verify the binding of CP9 to Hsp90α and Hsp90β in vitro, a displacement assay using ^3H-17AAG was performed. […] The amount of ^3H-17AAG that remained bound to Hsp90α or Hsp9013 was determined by scintillation counting.

For test [5], the target named is purified Hsp90β (Homo sapiens, UniProt P08238). The experiment in a line: In vitro competitive binding with 3H-17AAG. The note with it: CP9 200 μM pre-incubation. As for the experimental part: as §1, §2, §3
Sequence of purified Hsp90β (P08238 whole entry): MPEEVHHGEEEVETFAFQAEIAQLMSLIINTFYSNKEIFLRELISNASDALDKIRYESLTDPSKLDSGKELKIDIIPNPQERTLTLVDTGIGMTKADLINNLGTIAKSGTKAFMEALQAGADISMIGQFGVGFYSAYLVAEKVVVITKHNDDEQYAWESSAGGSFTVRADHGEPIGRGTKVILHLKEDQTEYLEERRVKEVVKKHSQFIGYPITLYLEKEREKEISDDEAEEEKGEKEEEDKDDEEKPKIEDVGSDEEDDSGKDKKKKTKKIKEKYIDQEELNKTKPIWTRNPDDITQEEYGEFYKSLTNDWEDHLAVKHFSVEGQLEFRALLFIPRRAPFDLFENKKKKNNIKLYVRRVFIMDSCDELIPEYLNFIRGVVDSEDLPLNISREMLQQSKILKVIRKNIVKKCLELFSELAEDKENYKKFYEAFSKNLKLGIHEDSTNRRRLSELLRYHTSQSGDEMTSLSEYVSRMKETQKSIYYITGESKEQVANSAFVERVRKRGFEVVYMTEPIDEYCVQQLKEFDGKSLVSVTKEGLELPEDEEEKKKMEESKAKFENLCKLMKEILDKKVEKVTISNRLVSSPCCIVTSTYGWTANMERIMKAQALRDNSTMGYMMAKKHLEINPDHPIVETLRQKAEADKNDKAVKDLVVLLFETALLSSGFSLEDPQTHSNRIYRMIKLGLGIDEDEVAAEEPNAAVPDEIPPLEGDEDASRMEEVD

For orientation: IC50 means the concentration that inhibits the measured activity by half. In turn, `Cc1cc(NC(=O)CSc2nc(-c3cccs3)cc(C(F)(F)F)n2)no1` [CP9, N-(5-methylisoxazol-3-yl)-2-(4-(thiophen-2-yl)-6-(trifluoromethyl)pyrimidin-2-ylthio)acetamide] showed an IC50 in test [1] of 3.2 µM. The “levels of Hsp90 client proteins (pAkt/total Akt, Raf-1)” value in test [2] is given as “more effective than CP18”. The “degradation of phosphorylated/total Akt and Raf-1” value in test [3] is listed as “various levels of degradation”. Besides, the “reduction of binding of 3H-17AAG to purified Hsp90α” value in test [4] was “about 50%”. The “binding of 3H-17AAG to Hsp90β” value in test [5] is “did not significantly affect”.
